How the values were obtained:
Test in all cases: relative viability (nuclei count vs DMSO), 5 days (fraction); higher = more cells survive
GW-2580 + Lapatinib = compound: COC1=CC=C(C=C1)COC2=C(C=C(C=C2)CC3=CN=C(N=C3N)N)OC [GW-2580] + CS(=O)(=O)CCNCc1ccc(-c2ccc3ncnc(Nc4ccc(OCc5cccc(F)c5)c(Cl)c4)c3c2)o1 [Lapatinib] (partner 2 µM)
Summary of the method: (§1)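 Dosing by pin tool came one day after lung cancer cell lines were seeded in 1536-well plates, using either one drug or a fixed anchor-drug dose plus five library-drug doses (not always all listed) in √10 steps. After 5 days, nuclei were counted on 4× images. Relative viability is treated-well nuclei count divided by vehicle-well nuclei count, and values are medians of duplicate plates.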

GW-2580 + Olaparib = compound: COC1=CC=C(C=C1)COC2=C(C=C(C=C2)CC3=CN=C(N=C3N)N)OC [GW-2580] + O=C(c1cc(Cc2n[nH]c(=O)c3ccccc23)ccc1F)N1CCN(C(=O)C2CC2)CC1 [Olaparib] (partner 8 µM)
Summary of the method: as §1

Fedratinib + OSI-027 = compound: Cc1cnc(Nc2ccc(OCCN3CCCC3)cc2)nc1Nc1cccc(S(=O)(=O)NC(C)(C)C)c1 [Fedratinib] + COc1cccc2cc(-c3nc([C@H]4CC[C@H](C(=O)O)CC4)n4ncnc(N)c34)[nH]c12 [OSI-027] (partner 0.5 µM)
Summary of the method: as §1

Fedratinib + Tozasertib = compound: Cc1cnc(Nc2ccc(OCCN3CCCC3)cc2)nc1Nc1cccc(S(=O)(=O)NC(C)(C)C)c1 [Fedratinib] + Cc1cc(Nc2cc(N3CCN(C)CC3)nc(Sc3ccc(NC(=O)C4CC4)cc3)n2)n[nH]1 [Tozasertib] (partner 0.1 µM)
Summary of the method: as §1

Fedratinib + Pemetrexed = compound: Cc1cnc(Nc2ccc(OCCN3CCCC3)cc2)nc1Nc1cccc(S(=O)(=O)NC(C)(C)C)c1 [Fedratinib] + Nc1nc2[nH]cc(CCc3ccc(C(=O)N[C@@H](CCC(=O)O)C(=O)O)cc3)c2c(=O)[nH]1 [Pemetrexed] (partner 0.2 µM)
Summary of the method: as §1

Fedratinib + Decitabine = compound: Cc1cnc(Nc2ccc(OCCN3CCCC3)cc2)nc1Nc1cccc(S(=O)(=O)NC(C)(C)C)c1 [Fedratinib] + Nc1ncn([C@H]2C[C@H](O)[C@@H](CO)O2)c(=O)n1 [Decitabine] (partner 2 µM)
Summary of the method: as §1

201T
relative viability (GW-2580 + Lapatinib; first compound 0.08 µM): 1.09 | relative viability (GW-2580 + Lapatinib; first compound 0.8 µM): 1.11 | relative viability (GW-2580 + Lapatinib; first compound 2.53 µM): 0.983 | relative viability (GW-2580 + Lapatinib; first compound 8 µM): 1.06 | relative viability (GW-2580 + Olaparib; first compound 0.08 µM): 0.896 | relative viability (GW-2580 + Olaparib; first compound 0.8 µM): 0.73 | relative viability (GW-2580 + Olaparib; first compound 2.53 µM): 0.887 | relative viability (GW-2580 + Olaparib; first compound 8 µM): 0.794 | relative viability (Fedratinib + OSI-027; first compound 0.1 µM): 0.698 | relative viability (Fedratinib + OSI-027; first compound 0.3162 µM): 0.613 | relative viability (Fedratinib + OSI-027; first compound 1 µM): 0.588 | relative viability (Fedratinib + Tozasertib; first compound 0.1 µM): 0.609 | relative viability (Fedratinib + Tozasertib; first compound 0.3162 µM): 0.904 | relative viability (Fedratinib + Tozasertib; first compound 1 µM): 0.874 | relative viability (Fedratinib + Pemetrexed; first compound 0.1 µM): 0.332 | relative viability (Fedratinib + Pemetrexed; first compound 0.3162 µM): 0.336 | relative viability (Fedratinib + Pemetrexed; first compound 1 µM): 0.314 | relative viability (Fedratinib + Decitabine; first compound 0.1 µM): 0.78 | relative viability (Fedratinib + Decitabine; first compound 0.3162 µM): 0.855 | relative viability (Fedratinib + Decitabine; first compound 1 µM): 0.877

A549
relative viability (GW-2580 + Lapatinib; first compound 0.08 µM): 1.11 | relative viability (GW-2580 + Lapatinib; first compound 0.8 µM): 1.04 | relative viability (GW-2580 + Lapatinib; first compound 2.53 µM): 0.89 | relative viability (GW-2580 + Lapatinib; first compound 8 µM): 0.869 | relative viability (GW-2580 + Olaparib; first compound 0.08 µM): 0.396 | relative viability (GW-2580 + Olaparib; first compound 0.8 µM): 0.527 | relative viability (GW-2580 + Olaparib; first compound 2.53 µM): 0.267 | relative viability (GW-2580 + Olaparib; first compound 8 µM): 0.301 | relative viability (Fedratinib + Decitabine; first compound 0.1 µM): 0.121 | relative viability (Fedratinib + Decitabine; first compound 0.3162 µM): 0.302 | relative viability (Fedratinib + Decitabine; first compound 1 µM): 0.257

A-427
relative viability (GW-2580 + Lapatinib; first compound 0.08 µM): 1.17 | relative viability (GW-2580 + Lapatinib; first compound 0.8 µM): 1.15 | relative viability (GW-2580 + Lapatinib; first compound 2.53 µM): 0.98 | relative viability (GW-2580 + Lapatinib; first compound 8 µM): 1.07 | relative viability (GW-2580 + Olaparib; first compound 0.08 µM): 0.76 | relative viability (GW-2580 + Olaparib; first compound 0.8 µM): 0.711 | relative viability (GW-2580 + Olaparib; first compound 2.53 µM): 0.756 | relative viability (GW-2580 + Olaparib; first compound 8 µM): 0.737 | relative viability (Fedratinib + OSI-027; first compound 0.1 µM): 0.444 | relative viability (Fedratinib + OSI-027; first compound 0.3162 µM): 0.498 | relative viability (Fedratinib + OSI-027; first compound 1 µM): 0.118 | relative viability (Fedratinib + Tozasertib; first compound 0.1 µM): 0.183 | relative viability (Fedratinib + Tozasertib; first compound 0.3162 µM): 0.194 | relative viability (Fedratinib + Tozasertib; first compound 1 µM): 0.16 | relative viability (Fedratinib + Pemetrexed; first compound 0.1 µM): 0.97 | relative viability (Fedratinib + Pemetrexed; first compound 0.3162 µM): 0.848 | relative viability (Fedratinib + Pemetrexed; first compound 1 µM): 0.939 | relative viability (Fedratinib + Decitabine; first compound 0.1 µM): 0.596 | relative viability (Fedratinib + Decitabine; first compound 0.3162 µM): 0.561 | relative viability (Fedratinib + Decitabine; first compound 1 µM): 0.524

ABC-1
relative viability (GW-2580 + Lapatinib; first compound 0.08 µM): 1.42 | relative viability (GW-2580 + Lapatinib; first compound 0.8 µM): 1.03 | relative viability (GW-2580 + Lapatinib; first compound 8 µM): 1.18 | relative viability (GW-2580 + Olaparib; first compound 0.08 µM): 0.774 | relative viability (GW-2580 + Olaparib; first compound 0.8 µM): 0.634 | relative viability (GW-2580 + Olaparib; first compound 2.53 µM): 1.43 | relative viability (GW-2580 + Olaparib; first compound 8 µM): 0.824 | relative viability (Fedratinib + OSI-027; first compound 0.1 µM): 0.607 | relative viability (Fedratinib + OSI-027; first compound 0.3162 µM): 0.467 | relative viability (Fedratinib + OSI-027; first compound 1 µM): 0.448 | relative viability (Fedratinib + Tozasertib; first compound 0.1 µM): 0.179 | relative viability (Fedratinib + Tozasertib; first compound 0.3162 µM): 0.146 | relative viability (Fedratinib + Tozasertib; first compound 1 µM): 0.138 | relative viability (Fedratinib + Decitabine; first compound 0.1 µM): 0.976 | relative viability (Fedratinib + Decitabine; first compound 0.3162 µM): 1.09 | relative viability (Fedratinib + Decitabine; first compound 1 µM): 1.01

BEN
relative viability (GW-2580 + Lapatinib; first compound 0.08 µM): 0.642 | relative viability (GW-2580 + Lapatinib; first compound 0.8 µM): 0.795 | relative viability (GW-2580 + Lapatinib; first compound 2.53 µM): 0.481 | relative viability (GW-2580 + Lapatinib; first compound 8 µM): 0.709 | relative viability (GW-2580 + Olaparib; first compound 0.08 µM): 0.877 | relative viability (GW-2580 + Olaparib; first compound 0.8 µM): 1.12 | relative viability (GW-2580 + Olaparib; first compound 2.53 µM): 1.03 | relative viability (GW-2580 + Olaparib; first compound 8 µM): 0.962 | relative viability (Fedratinib + OSI-027; first compound 0.1 µM): 0.267 | relative viability (Fedratinib + OSI-027; first compound 0.3162 µM): 0.297 | relative viability (Fedratinib + OSI-027; first compound 1 µM): 0.27 | relative viability (Fedratinib + Tozasertib; first compound 0.1 µM): 0.507 | relative viability (Fedratinib + Tozasertib; first compound 0.3162 µM): 0.464 | relative viability (Fedratinib + Tozasertib; first compound 1 µM): 0.45 | relative viability (Fedratinib + Pemetrexed; first compound 0.1 µM): 0.653 | relative viability (Fedratinib + Pemetrexed; first compound 0.3162 µM): 0.755 | relative viability (Fedratinib + Pemetrexed; first compound 1 µM): 0.669 | relative viability (Fedratinib + Decitabine; first compound 0.1 µM): 0.582 | relative viability (Fedratinib + Decitabine; first compound 0.3162 µM): 0.693 | relative viability (Fedratinib + Decitabine; first compound 1 µM): 0.608

CAL-12T
relative viability (GW-2580 + Lapatinib; first compound 0.08 µM): 0.601 | relative viability (GW-2580 + Lapatinib; first compound 0.8 µM): 0.662 | relative viability (GW-2580 + Lapatinib; first compound 2.53 µM): 0.545 | relative viability (GW-2580 + Lapatinib; first compound 8 µM): 0.735 | relative viability (GW-2580 + Olaparib; first compound 0.08 µM): 0.743 | relative viability (GW-2580 + Olaparib; first compound 0.8 µM): 0.817 | relative viability (GW-2580 + Olaparib; first compound 2.53 µM): 0.726 | relative viability (GW-2580 + Olaparib; first compound 8 µM): 0.69 | relative viability (Fedratinib + OSI-027; first compound 0.1 µM): 0.566 | relative viability (Fedratinib + OSI-027; first compound 0.3162 µM): 0.694 | relative viability (Fedratinib + OSI-027; first compound 1 µM): 0.474 | relative viability (Fedratinib + Tozasertib; first compound 0.1 µM): 0.285 | relative viability (Fedratinib + Tozasertib; first compound 0.3162 µM): 0.304 | relative viability (Fedratinib + Tozasertib; first compound 1 µM): 0.322 | relative viability (Fedratinib + Pemetrexed; first compound 0.1 µM): 1.02 | relative viability (Fedratinib + Pemetrexed; first compound 0.3162 µM): 1.2 | relative viability (Fedratinib + Pemetrexed; first compound 1 µM): 1.31

COR-L23
relative viability (GW-2580 + Lapatinib; first compound 0.08 µM): 1.26 | relative viability (GW-2580 + Lapatinib; first compound 0.8 µM): 1.22 | relative viability (GW-2580 + Lapatinib; first compound 2.53 µM): 1.06 | relative viability (GW-2580 + Lapatinib; first compound 8 µM): 1.06 | relative viability (GW-2580 + Olaparib; first compound 0.08 µM): 0.422 | relative viability (GW-2580 + Olaparib; first compound 0.8 µM): 0.375 | relative viability (GW-2580 + Olaparib; first compound 2.53 µM): 0.294 | relative viability (GW-2580 + Olaparib; first compound 8 µM): 0.406 | relative viability (Fedratinib + OSI-027; first compound 0.1 µM): 0.741 | relative viability (Fedratinib + OSI-027; first compound 0.3162 µM): 0.714 | relative viability (Fedratinib + OSI-027; first compound 1 µM): 0.596 | relative viability (Fedratinib + Tozasertib; first compound 0.1 µM): 0.103 | relative viability (Fedratinib + Tozasertib; first compound 0.3162 µM): 0.186 | relative viability (Fedratinib + Tozasertib; first compound 1 µM): 0.168 | relative viability (Fedratinib + Pemetrexed; first compound 0.1 µM): 0.177 | relative viability (Fedratinib + Pemetrexed; first compound 0.3162 µM): 0.218 | relative viability (Fedratinib + Pemetrexed; first compound 1 µM): 0.184 | relative viability (Fedratinib + Decitabine; first compound 0.1 µM): 0.4 | relative viability (Fedratinib + Decitabine; first compound 0.3162 µM): 0.416 | relative viability (Fedratinib + Decitabine; first compound 1 µM): 0.177

COR-L 105
relative viability (GW-2580 + Lapatinib; first compound 0.08 µM): 0.429 | relative viability (GW-2580 + Lapatinib; first compound 0.8 µM): 0.393 | relative viability (GW-2580 + Lapatinib; first compound 2.53 µM): 0.336 | relative viability (GW-2580 + Lapatinib; first compound 8 µM): 0.351 | relative viability (GW-2580 + Olaparib; first compound 0.08 µM): 0.658 | relative viability (GW-2580 + Olaparib; first compound 0.8 µM): 0.633 | relative viability (GW-2580 + Olaparib; first compound 2.53 µM): 0.909 | relative viability (GW-2580 + Olaparib; first compound 8 µM): 0.68 | relative viability (Fedratinib + OSI-027; first compound 0.1 µM): 0.633 | relative viability (Fedratinib + OSI-027; first compound 0.3162 µM): 0.649 | relative viability (Fedratinib + OSI-027; first compound 1 µM): 0.497 | relative viability (Fedratinib + Tozasertib; first compound 0.1 µM): 0.362 | relative viability (Fedratinib + Tozasertib; first compound 0.3162 µM): 0.361 | relative viability (Fedratinib + Tozasertib; first compound 1 µM): 0.338 | relative viability (Fedratinib + Pemetrexed; first compound 0.1 µM): 0.96 | relative viability (Fedratinib + Pemetrexed; first compound 0.3162 µM): 1.1 | relative viability (Fedratinib + Pemetrexed; first compound 1 µM): 0.827 | relative viability (Fedratinib + Decitabine; first compound 0.1 µM): 0.669 | relative viability (Fedratinib + Decitabine; first compound 0.3162 µM): 0.611 | relative viability (Fedratinib + Decitabine; first compound 1 µM): 0.511

From the supplement of paper PMC10307832
